Among the data in patent US8183239B2, “Substituted piperazines and piperidines as modulators of the neuropeptide Y2 receptor” (Janssen Pharmaceutica NV, priority 2005, dated 2012) are IC50 values, retold here.

Broadly, the IC50 is the concentration needed to halve the response being measured.

Some results are limits rather than exact numbers.

The target in the test is T1, Y2 receptors (Homo sapiens, UniProt P49146).
T1 construct: endogenous in cells; host or cells: KAN-Ts cells (membranes)
T1 sequence (P49146 1-381): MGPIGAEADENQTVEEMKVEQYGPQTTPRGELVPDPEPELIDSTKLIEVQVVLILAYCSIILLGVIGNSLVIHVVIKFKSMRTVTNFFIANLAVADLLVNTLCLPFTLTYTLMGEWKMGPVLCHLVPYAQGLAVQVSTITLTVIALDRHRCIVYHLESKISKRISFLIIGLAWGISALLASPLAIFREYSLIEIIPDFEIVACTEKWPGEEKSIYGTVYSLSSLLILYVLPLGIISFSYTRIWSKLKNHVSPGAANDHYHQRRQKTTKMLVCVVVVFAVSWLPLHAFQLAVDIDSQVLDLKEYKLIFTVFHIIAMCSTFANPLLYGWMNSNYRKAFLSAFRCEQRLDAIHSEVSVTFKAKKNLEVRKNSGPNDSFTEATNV
Put plainly: Radioligand binding assay ([125I]PYY, KAN-Ts cell membranes). The settings on record: Table 2, [125I]PYY 80 pM, average of results, read-out: IC50. The procedure, abridged:
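IC50 values are means of three to eight experiments run in duplicate, fitted sigmoidally against specific binding (defined by […]). Competition used 80 pM [^125I]PYY for 1 h at room temperature on KAN-Ts membranes carrying native Y2, with filtration and scintillation counting.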
In the case of `CCN(CC)C(=O)C(c1ccccc1)N1CCN(c2ccc(NC(=O)C3CCCC3)cc2C#N)CC1` (stereo not drawn) [Example 221, Cyclopentanecarboxylic acid {3-cyano-4-[4-(diethylcarbamoyl-phenyl-methyl)-piperazin-1-yl]-phenyl}-amide], the IC50 amounted to 48 nM. In the case of `CCN(CC)C(=O)C(c1ccccc1)C1CCN(c2ccc(NC(=O)C3CCC3)cc2F)CC1` (stereo not drawn) [Example 222, Cyclobutanecarboxylic acid {4-[4-(diethylcarbamoyl-phenyl-methyl)-piperidin-1-yl]-3-fluoro-phenyl}-amide], the IC50 turned out to be 63 nM.

On to `CCC(CC)C(=O)Nc1ccc(N2CCN(C(C(=O)N(CC)CC)c3ccccc3)CC2)c(Br)c1` (stereo not drawn) [Example 223, N-{3-Bromo-4-[4-(diethylcarbamoyl-phenyl-methyl)-piperazin-1-yl]-phenyl}-2-ethyl-butyramide], for which the IC50 worked out at 80 nM. With `CCN(CC)C(=O)C(c1ccccc1)N1CCN(c2ccc(NC(=O)C3CCCC3)c(F)c2C#N)CC1` (stereo not drawn) [Example 224, Cyclopentanecarboxylic acid {3-cyano-4-[4-(diethylcarbamoyl-phenyl-methyl)-piperazin-1-yl]-2-fluoro-phenyl}-amide], the IC50 is 92 nM. The result for `CCC(CC)C(=O)Nc1cc(F)c(N2CCN(C(C(=O)N(CC)CC)c3ccccc3)CC2)cc1F` (stereo not drawn) [Example 225, N-{4-[4-(Diethylcarbamoyl-phenyl-methyl)-piperazin-1-yl]-2,5-difluoro-phenyl}-2-ethyl-butyramide] reads 107 nM; that for `CCC(CC)C(=O)Nc1cc(F)c(N2CCN(C(C(=O)N(CC)CC)c3ccccc3)CC2)c(F)c1` (stereo not drawn) [Example 226, N-{4-[4-(Diethylcarbamoyl-phenyl-methyl)-piperazin-1-yl]-3,5-difluoro-phenyl}-2-ethyl-butyramide], 95 nM; that for `CCC(CC)C(=O)Nc1ccc(N2CCN(C(C(=O)N(CC)CC)c3ccccc3)CC2)c(C#N)c1F` (stereo not drawn) [Example 227, N-{3-Cyano-4-[4-(diethylcarbamoyl-phenyl-methyl)-piperazin-1-yl]-2-fluoro-phenyl}-2-ethyl-butyramide], 116 nM. Then `CCN(CC)C(=O)C(c1ccccc1)N1CCN(c2ccc(NC(=O)C3CC4CCC3C4)cc2F)CC1` (stereo not drawn) [Example 228, Bicyclo[2.2.1]heptane-2-carboxylic acid {4-[4-(diethylcarbamoyl-phenyl-methyl)-piperazin-1-yl]-3-fluoro-phenyl}-amide], with 120 nM; and `CCN(CC)C(=O)C(c1ccccc1)C1CCN(c2ccc(NC(=O)C3CC3)cc2F)CC1` (stereo not drawn) [Example 229, Cyclopropanecarboxylic acid {4-[4-(diethylcarbamoyl-phenyl-methyl)-piperidin-1-yl]-3-fluoro-phenyl}-amide], with 120 nM; and `CCN(CC)C(=O)C(c1ccccc1)N1CCN(c2c(F)cc(NC(=O)C3CCCC3)cc2F)CC1` (stereo not drawn) [Example 230, Cyclopentanecarboxylic acid {4-[4-(diethylcarbamoyl-phenyl-methyl)-piperazin-1-yl]-3,5-difluoro-phenyl}-amide], with 150 nM.

For `CCN(CC)C(=O)C(c1ccccc1)N1CCN(c2ccc(NC(=O)C3CCCC3)cc2C)CC1` (stereo not drawn) [Example 231, Cyclopentanecarboxylic acid {4-[4-(diethylcarbamoyl-phenyl-methyl)-piperazin-1-yl]-3-methyl-phenyl}-amide], the IC50 came out at 200 nM.

Regarding `CCC(CC)C(=O)Nc1ccc(N2CCN(C(C(=O)N(CC)CC)c3ccccc3)CC2)c(C)c1` (stereo not drawn) [Example 232, N-{4-[4-(Diethylcarbamoyl-phenyl-methyl)-piperazin-1-yl]-3-methyl-phenyl}-2-ethyl-butyramide], the IC50 was 210 nM. As for `CCC(CC)C(=O)Nc1ccc(N2CCN(C(C(=O)N(CC)CC)c3ccccc3)CC2)c(F)c1F` (stereo not drawn) [Example 233, N-{4-[4-(Diethylcarbamoyl-phenyl-methyl)-piperazin-1-yl]-2,3-difluoro-phenyl}-2-ethyl-butyramide], the IC50 was 270 nM. In the case of `CCC(CC)C(=O)Nc1ccc(N2CCC(C(C#N)c3ccccc3)CC2)c(F)c1` (stereo not drawn) [Example 234, N-{4-[4-(Cyano-phenyl-methyl)-piperidin-1-yl]-3-fluoro-phenyl}-2-ethyl-butyramide], the IC50 worked out at 280 nM.

As for `CCNC(=O)C(c1ccccc1)N1CCN(c2c(F)cc(NC(=O)[C@@H]3CCOC3)cc2F)CC1` (stereo partly drawn) [Example 236, (R)-Tetrahydro-furan-3-carboxylic acid {4-[4-(ethylcarbamoyl-phenyl-methyl)-piperazin-1-yl]-3,5-difluoro-phenyl}-amide], the half-inhibitory concentration (IC50) was determined as 900 nM. Regarding `CCC(CC)C(=O)Nc1ccc(N2CCN(C(C(=O)N(CC)CC)c3ccccc3)CC2)cc1C#N` (stereo not drawn) [Example 237, N-{2-Cyano-4-[4-(diethylcarbamoyl-phenyl-methyl)-piperazin-1-yl]-phenyl}-2-ethyl-butyramide], the 50% inhibitory concentration (IC50) was 1100 nM. On to `CCN(CC)C(=O)C(c1ccccc1)N1CCN(c2ccc(NC(=O)C3CCCC3)cc2OC)CC1` (stereo not drawn) [Example 238, Cyclopentanecarboxylic acid {4-[4-(diethylcarbamoyl-phenyl-methyl)-piperazin-1-yl]-3-methoxy-phenyl}-amide], for which the IC50 was found to be 1300 nM. Take `CCNC(=O)C(c1ccccc1)N1CCN(c2c(F)cc(NC(=O)C3CCCC3)cc2F)CC1` (stereo not drawn) [Example 239, Cyclopentanecarboxylic acid {4-[4-(ethylcarbamoyl-phenyl-methyl)-piperazin-1-yl]-3,5-difluoro-phenyl}-amide]: the half-inhibitory concentration (IC50) was 2500 nM.

For the compound `C#Cc1cc(NC(=O)C(CC)CC)ccc1N1CCN(C(C(=O)N(CC)CC)c2ccccc2)CC1` (stereo not drawn) [Example 240, N-{4-[4-(Diethylcarbamoyl-phenyl-methyl)-piperazin-1-yl]-3-ethynyl-phenyl}-2-ethyl-butyramide], the IC50 worked out at 18 nM. Turning to `CCN(CC)C(=O)C(c1ccccc1)N1CCN(c2ccc(NC(=O)CC3CC3)cc2F)CC1` (stereo not drawn) [Example 241, 2-{4-[4-(2-Cyclopropyl-acetylamino)-2-fluoro-phenyl]-piperazin-1-yl}-N,N-diethyl-2-phenyl-acetamide], the IC50 is 300 nM. As for `CCN(CC)C(=O)C(c1ccccc1)N1CCN(c2ccc(NC(=O)CC3CCCC3)cc2F)CC1` (stereo not drawn) [Example 242, 2-{4-[4-(2-Cyclopentyl-acetylamino)-2-fluoro-phenyl]-piperazin-1-yl}-N,N-diethyl-2-phenyl-acetamide], the IC50 came to 3000 nM. For the compound `CCN(CC)C(=O)C(c1ccccc1)N1CCN(c2ccc(NC(=O)C3CC3C)cc2F)CC1` (stereo not drawn) [Example 243, 2-Methyl-cyclopropanecarboxylic acid {4-[4-(diethylcarbamoyl-phenyl-methyl)-piperazin-1-yl]-3-fluoro-phenyl}-amide], the half-maximal inhibitory concentration (IC50) amounted to 120 nM. In the case of `CCN(CC)C(=O)C(c1ccccc1)N1CCN(c2ccc(NC(=O)C3CCCC3)cc2F)CC1` (stereo not drawn) [Example 244, Cyclopentanecarboxylic acid {4-[4-(diethylcarbamoyl-phenyl-methyl)-piperazin-1-yl]-3-fluoro-phenyl}-amide], the 50% inhibitory concentration (IC50) is 80 nM.

Take `CCC(CC)NC(=O)c1ccc(N2CCN(C(C(=O)N(CC)CC)c3ccccc3)CC2)c(F)c1` (stereo not drawn) [Example 245, 4-[4-(Diethylcarbamoyl-phenyl-methyl)-piperazin-1-yl]-N-(1-ethyl-propyl)-3-fluoro-benzamide]: the IC50 amounted to 3000 nM. As to `CCN(CC)C(=O)C(c1ccccc1)N1CCN(c2ccc(CNC(=O)C(C)CC(F)(F)F)cc2F)CC1` (stereo not drawn) [Example 246, N-{4-[4-(Diethylcarbamoyl-phenyl-methyl)-piperazin-1-yl]-3-fluoro-benzyl}-4,4,4-trifluoro-2-methyl-butyramide], the 50% inhibitory concentration (IC50) amounted to 2200 nM.

As for `CCN(CC)C(=O)C(c1ccccc1)N1CCN(c2ccc(CNC(=O)[C@H]3CCOC3)cc2F)CC1` (stereo partly drawn) [Example 247, (S)-Tetrahydro-furan-3-carboxylic acid 4-[4-(diethylcarbamoyl-phenyl-methyl)-piperazin-1-yl]-3-fluoro-benzylamide], the IC50 is at least 10000 nM. Regarding `CCC(CC)C(=O)Nc1ccc(N2CCC([C@@H](C(=O)N(CC)CC)c3ccccc3)CC2)c(F)c1` [Example 248, (R)-(−)-N-{4-[4-(Diethylcarbamoyl-phenyl-methyl)-piperidin-1-yl]-3-fluoro-phenyl}-2-ethyl-butyramide], the IC50 is 13 nM.

As to `CCC(CC)C(=O)Nc1ccc(N2CCC([C@H](C(=O)N(CC)CC)c3ccccc3)CC2)c(F)c1` [Example 249, (S)—(+)-N-{4-[4-(Diethylcarbamoyl-phenyl-methyl)-piperidin-1-yl]-3-fluoro-phenyl}-2-ethyl-butyramide], the IC50 stood at 100 nM. Turning to `CCC(CC)C(=O)Nc1ccc(N2CCN(C(C(=O)N(CC)CC)c3ccc(OC)cc3)CC2)c(C#N)c1` (stereo not drawn) [Example 250, N-(3-Cyano-4-{4-[diethylcarbamoyl-(4-methoxy-phenyl)-methyl]-piperazin-1-yl}-phenyl)-2-ethyl-butyramide], the IC50 came to 9 nM. With `CCC(CC)C(=O)Nc1ccc(N2CCN(C(C(=O)N(CC)CC)c3ccc(OC)cc3)CC2)c(F)c1` (stereo not drawn) [Example 251, N-(4-{4-[Diethylcarbamoyl-(4-methoxy-phenyl)-methyl]-piperazin-1-yl}-3-fluoro-phenyl)-2-ethyl-butyramide], the IC50 worked out at 18 nM.
